Values after ≈ are worked out from the molar mass of the structure shown.
Columns and labels:
MRSA ATCC 43300 = experiment: Antibacterial MIC assay, serial dilution; type: cell-based, Staphylococcus aureus; settings: for Selectivity index (CC50/MIC) MRSA 43300: CC50 Vero cells / MIC; for MIC: Staphylococcus aureus, read-out: MIC MRSA ATCC 43300
Experimental: (§1) Media and solutions were autoclaved or sterile filtered prior to use and mani pulations were carri ed out in a laminar flow hood. Antibacterial t esting was performed in polypropylene 96-well flat bottom plates. The minimal inhibitory concentration of blasticidin S (1) hydrochloride, methyl ester (3) trihydrochloride, P10 (2) tri-T FA , phenet hyl amide (4) tri -T FA , an d blastimidines M 19– 22, A, 29–32, P 37–40, and C 43–46 (salt forms as described in the te xt) were assessed against Staphylococcus aureus ΔNorA, S. aureus ATCC 6538P, methicillin-resistant S. aureus (MRSA) ATCC 43300, Enterococcus faecalis ATCC 29212, vancomycin- resistant Enterococcus, Klebsiella pneumoniae ATCC 29665, Pseudomonas aeruginosa,and Acinetobacter baumannii ATCC 17978 using serial dilutions. Doxycycline (Gold Bio) as a positive control and the vehicle as a negative control. Stock solutions of each compound were prepared at 2.56 mg/mL in 50% DMSO/water and serially diluted in 50% DMSO/water to create master plates. From the master plates, 10 μ L o f each dilution was applied to test plates using a Bravo automated liquid transfer system (Agilent).
(§2) Bacteria previously grown overnight (37 °C, 120–200 RPM), in LB broth were diluted to an OD600 of 0.05 in cation-adjusted Mueller-Hinton broth (CAMHB), grown to an OD600 of ~0.5, and diluted to an OD600 of 0.004 in CAMHB . These diluted cultures were applied to the test plates (190 μL per test well) resulting in final concentrations of the test compounds of 128–1 μg/ m L.
(§3) Growth controls (wells with inoculated media but no vehicle or test compounds) were included to assess any potential toxicity from the vehicle. Th e plates were in cubated at 37 °C for 16–18 h, except fo r VRE and E. faecalis, which w ere in cub ated at 37 °C fo r 24 h. Inh ibition was determined by measuring the optical density at 600 nm (OD60 0) with a Cytation 3 pl ate read er (BioTek). The optical density measurem ents were no rmalized to the positive and negative controls and the vehicle and growth controls were compared and found to b e indistinguishable, indicating no toxicity from […]
(§4) the vehicle used. The MIC was the lowest concentration that inhibited >90% of growth. Two biological replicates were performed in duplicate. MIC values are reported as a range from […]

S. aureus ATCC 6538P = experiment: Antibacterial MIC assay, serial dilution; type: cell-based, Staphylococcus aureus; settings: for Selectivity index (CC50/MIC) S. aureus 6538P: CC50 Vero cells / MIC; for MIC: Staphylococcus aureus, ATCC 6538P / ATCC 6539P, read-out: MIC S. aureus ATCC 6539P
Experimental: as §1, §2, §3, §4

S. aureus ΔNorA = experiment: Antibacterial MIC assay, serial dilution; type: cell-based, Staphylococcus aureus; settings: for Selectivity index (CC50/MIC) S. aureus ΔNorA: CC50 Vero cells / MIC; for MIC: Staphylococcus aureus, read-out: MIC S. aureus ∆NorA
Experimental: as §1, §2, §3, §4

[1] = system: Methicillin resistant Staphylococcus epidermidis (MRSE) ATCC 35984 NRS101; experiment: Antibacterial MIC assay, serial dilution; type: cell-based; settings: for Selectivity index (CC50/MIC) MRSE 35984: CC50 Vero cells / MIC; for MIC: Staphylococcus epidermidis, read-out: MIC Methicillin resistant Staphylococcus epidermidis (MRSE) ATCC 35984 NRS101
[2] = system: Methicillin resistant S. aureus (MRSA) USA300; experiment: Antibacterial MIC assay, serial dilution; type: cell-based, Staphylococcus aureus; settings: for Selectivity index (CC50/MIC) MRSA USA300: CC50 Vero cells / MIC; for MIC: Staphylococcus aureus, read-out: MIC Methicillin resistant S. aureus (MRSA) USA300
[3] = system: Vancomycin resistant E. faecalis NR-31972 (VRE); experiment: Antibacterial MIC assay, serial dilution; type: cell-based, Enterococcus faecalis; settings: for Selectivity index (CC50/MIC) VRE NR-31972: CC50 Vero cells / MIC; for MIC: Enterococcus faecalis, VRE, 24 h, read-out: MIC Vancomycin resistant E. faecalis NR-31972 (VRE)
Experimental: as §1, §2, §3, §4

[4] = system: Acinetobacter baumannii ATCC 17978; experiment: Antibacterial MIC assay, serial dilution; type: cell-based; settings: ATCC17978, range from biological replicates
Experimental: as §1, §2, §3, §4

[5] = system: Enterococcus faecalis ATCC 29212; experiment: Antibacterial MIC assay, serial dilution; type: cell-based; settings: for Selectivity index (CC50/MIC) E. faecalis 29212: CC50 Vero cells / MIC; for MIC: Enterococcus faecalis, ATCC 29112 / ATCC 29212, 24 h, read-out: MIC E. faecalis ATCC 29112
Experimental: as §1, §2, §3, §4

[6] = system: Klebsiella pneumoniae ATCC 29665; experiment: Antibacterial MIC assay, serial dilution; type: cell-based; settings: for MIC: Klebsiella pneumoniae, ATCC29665, range from biological replicates, read-out: MIC K. pneumoniae ATCC-29665; for Selectivity index (CC50/MIC) K. pneumoniae: CC50 Vero cells / MIC
Experimental: as §1, §2, §3, §4

Pseudomonas aeruginosa = experiment: Antibacterial MIC assay, serial dilution; type: cell-based; settings: for Selectivity index (CC50/MIC) P. aeruginosa: CC50 Vero cells / MIC; for MIC: Pseudomonas aeruginosa, range from biological replicates, read-out: MIC P. aeruginosa
Experimental: as §1, §2, §3, §4

[7] = system: Vancomycin resistant Enterococcus faecium NR-31909 (VRE); experiment: Antibacterial MIC assay, serial dilution; type: cell-based; settings: for Selectivity index (CC50/MIC) VRE NR-31909: CC50 Vero cells / MIC; for MIC: Enterococcus faecium, VRE, 24 h, read-out: MIC Vancomycin resistant Enterococcus faecium NR-31909 (VRE)
Experimental: as §1, §2, §3, §4

[8] = system: Escherichia coli BAA-2452; experiment: Antibacterial MIC assay, serial dilution; type: cell-based; settings: BAA2452, read-out: MIC Escherichia coli BAA-2452
[9] = Cytotoxicity assay (MTS/PMS); type: cell-based; settings: monkey, Vero cells (monkey kidney epithelial cells); 24 h treatment, MTS/PMS, average of three biological replicates; read-out: CC50 against Vero cells
Experimental: The potential cytotoxic eff ect of the test compounds was investigated using Vero cells (monkey kidney epitheli al cells) following est ablished protocols.3 Briefly, Vero cells were plated into 96-well plates supplemented with Dulbecco's Modified Eagle Medium (DMEM) containing 10% fetal bovine serum (FBS). The cells were placed in a humidified 37 °C environment for incubation with 5% CO₂ for 24 h to allow proper adherence and growth. Following the incubation period, the culture medium was replaced with fresh DMEM containing serial dilutions of the test compounds, while the v ehicle alon e w as used as a negative control. The treated cells were incubated for an additional 24 h. To assess cell viability, the MTS/PMS reagent was added to each well and incubat ed for 4 h. A microplate reader (S ynergy H1, BioTek, USA) was used to m easure absorbance at 490 nm. Al l experiments wer e cond ucted usingthree biologi cal replicates .
Ta b l e S2. CC50 valuesa (µg/mL) against Vero cells […]
aValues at which the cell viability (normalized to vehicle control) was 50%. […]

CN(CC[C@H](N)CC(=O)N[C@H]1C=C[C@H](n2ccc(N)nc2=O)O[C@@H]1C(=O)NCCc1ccccc1)C(=N)N [Blastimidine P1, blasticidin S phenethylamide]
Selectivity index (CC50/MIC) MRSA 43300 (MRSA ATCC 43300): 7.3
MIC (MRSA ATCC 43300): 32 µg/mL (≈ 60.9 µM)
Selectivity index (CC50/MIC) S. aureus 6538P (S. aureus ATCC 6538P): 15
MIC (S. aureus ATCC 6538P): 16 µg/mL (≈ 30.4 µM)
Selectivity index (CC50/MIC) S. aureus ΔNorA (S. aureus ΔNorA): 1.8
MIC (S. aureus ΔNorA): 128 µg/mL (≈ 244 µM)
Selectivity index (CC50/MIC) MRSE 35984 [1]: 59
MIC [1]: 4 µg/mL (≈ 7.61 µM)
Selectivity index (CC50/MIC) MRSA USA300 [2]: 20
MIC [2]: 8 to 16 µg/mL (≈ 15.2 to 30.4 µM)
Selectivity index (CC50/MIC) VRE NR-31972 [3]: 15
MIC [3]: 16 µg/mL (≈ 30.4 µM)
MIC [4]: > 128 µg/mL
Selectivity index (CC50/MIC) E. faecalis 29212 [5]: 15
MIC [5]: 16 µg/mL (≈ 30.4 µM)
MIC [6]: > 128 µg/mL
Selectivity index (CC50/MIC) P. aeruginosa (Pseudomonas aeruginosa): 2.8
MIC (Pseudomonas aeruginosa): 64 to 128 µg/mL (≈ 122 to 244 µM)
Selectivity index (CC50/MIC) VRE NR-31909 [7]: 1.8
MIC [7]: 128 µg/mL (≈ 244 µM)
MIC [8]: > 128 µg/mL
CC50 at 24 h [9]: 235 µg/mL (≈ 447 µM)

CNc1ccc(C(=O)Nc2ccn([C@H]3C=C[C@H](NC(=O)C[C@@H](N)CCN(C)C(=N)N)[C@@H](C(N)=O)O3)c(=O)n2)cc1 [Blastimidine A3]
Selectivity index (CC50/MIC) MRSA 43300 (MRSA ATCC 43300): 1.5
MIC (MRSA ATCC 43300): 16 µg/mL (≈ 28.8 µM)
Selectivity index (CC50/MIC) S. aureus 6538P (S. aureus ATCC 6538P): 2.3
MIC (S. aureus ATCC 6538P): 8 to 16 µg/mL (≈ 14.4 to 28.8 µM)
Selectivity index (CC50/MIC) S. aureus ΔNorA (S. aureus ΔNorA): 1.5
MIC (S. aureus ΔNorA): 16 µg/mL (≈ 28.8 µM)
Selectivity index (CC50/MIC) MRSE 35984 [1]: 1.5
MIC [1]: 16 µg/mL (≈ 28.8 µM)
Selectivity index (CC50/MIC) MRSA USA300 [2]: 3.0
MIC [2]: 8 µg/mL (≈ 14.4 µM)
Selectivity index (CC50/MIC) VRE NR-31972 [3]: 0.8
MIC [3]: 32 µg/mL (≈ 57.7 µM)
MIC [4]: > 128 µg/mL
Selectivity index (CC50/MIC) E. faecalis 29212 [5]: 1.5
MIC [5]: 16 µg/mL (≈ 28.8 µM)
Selectivity index (CC50/MIC) K. pneumoniae [6]: 0.8
MIC [6]: 32 µg/mL (≈ 57.7 µM)
Selectivity index (CC50/MIC) P. aeruginosa (Pseudomonas aeruginosa): <0.2
MIC (Pseudomonas aeruginosa): > 128 µg/mL
Selectivity index (CC50/MIC) VRE NR-31909 [7]: 2.0
MIC [7]: 8 to 16 µg/mL (≈ 14.4 to 28.8 µM)
MIC [8]: 32 µg/mL (≈ 57.7 µM)
CC50 at 24 h [9]: 24 µg/mL (≈ 43.3 µM)

CN(CC[C@H](N)CC(=O)N[C@H]1C=C[C@H](n2ccc(N)nc2=O)O[C@@H]1C(N)=O)C(=N)N [Blastimidine A1, P10, reference compound]
Selectivity index (CC50/MIC) MRSA 43300 (MRSA ATCC 43300): 0.2
MIC (MRSA ATCC 43300): 32 µg/mL (≈ 75.9 µM)
Selectivity index (CC50/MIC) S. aureus 6538P (S. aureus ATCC 6538P): 0.2
MIC (S. aureus ATCC 6538P): 32 µg/mL (≈ 75.9 µM)
Selectivity index (CC50/MIC) S. aureus ΔNorA (S. aureus ΔNorA): 0.1
MIC (S. aureus ΔNorA): 128 µg/mL (≈ 304 µM)
Selectivity index (CC50/MIC) MRSE 35984 [1]: 0.2
MIC [1]: 32 µg/mL (≈ 75.9 µM)
Selectivity index (CC50/MIC) MRSA USA300 [2]: 0.4
MIC [2]: 16 µg/mL (≈ 38 µM)
Selectivity index (CC50/MIC) VRE NR-31972 [3]: 0.1
MIC [3]: 64 µg/mL (≈ 152 µM)
MIC [4]: 32 µg/mL (≈ 75.9 µM)
Selectivity index (CC50/MIC) E. faecalis 29212 [5]: 0.2
MIC [5]: 32 µg/mL (≈ 75.9 µM)
Selectivity index (CC50/MIC) K. pneumoniae [6]: 0.2
MIC [6]: 32 µg/mL (≈ 75.9 µM)
Selectivity index (CC50/MIC) P. aeruginosa (Pseudomonas aeruginosa): 0.1
MIC (Pseudomonas aeruginosa): 64 µg/mL (≈ 152 µM)
Selectivity index (CC50/MIC) VRE NR-31909 [7]: 0.2
MIC [7]: 32 µg/mL (≈ 75.9 µM)
MIC [8]: 16 µg/mL (≈ 38 µM)
CC50 at 24 h [9]: 7 µg/mL (≈ 16.6 µM)

Source: article PMC12856912, “Structure-Guided Semisynthesis of Blasticidin S–Amicetin Chimeras as Selective Ribosome Inhibitors” (Journal of the American Chemical Society, 2026)
